Laboratory results as given in patent US20050112696A1, “Compositions, methods and assays related to secretase cleavage specificity” (The University of Texas Southwestern Medical Center, priority 2003, published 2005).
Entries after “also recorded” stand apart in the source; their conditions may differ.

B1: F-spondin: secreted multi-domain protein that promotes neural cell adhesion and neurite extension; extracellular ligand of APP (protein, UniProt Q9HCB6 29-807, looked up)
Spondin-1: FSDETLDKVPKSEGYCSRILRAQGTRREGYTEFSLRVEGDPDFYKPGTSYRVTLSAAPPSYFRGFTLIALRENREGDKEEDHAGTFQIIDEEETQFMSNCPVAVTESTPRRRTRIQVFWIAPPAGTGCVILKASIVQKRIIYFQDEGSLTKKLCEQDSTFDGVTDKPILDCCACGTAKYRLTFYGNWSEKTHPKDYPRRANHWSAIIGGSHSKNYVLWEYGGYASEGVKQVAELGSPVKMEEEIRQQSDEVLTVIKAKAQWPAWQPLNVRAAPSAEFSVDRTRHLMSFLTMMGPSPDWNVGLSAEDLCTKECGWVQKVVQDLIPWDAGTDSGVTYESPNKPTIPQEKIRPLTSLDHPQSPFYDPEGGSITQVARVVIERIARKGEQCNIVPDNVDDIVADLAPEEKDEDDTPETCIYSNWSPWSACSSSTCDKGKRMRQRMLKAQLDLSVPCPDTQDFQPCMGPGCSDEDGSTCTMSEWITWSPCSISCGMGMRSRERYVKQFPEDGSVCTLPTEETEKCTVNEECSPSSCLMTEWGEWDECSATCGMGMKKRHRMIKMNPADGSMCKAETSQAEKCMMPECHTIPCLLSPWSEWSDCSVTCGKGMRTRQRMLKSLAELGDCNEDLEQVEKCMLPECPIDCELTEWSQWSECNKSCGKGHVIRTRMIQMEPQFGGAPCPETVQRKKCRIRKCLRNPSIQKLRWREARESRRSEQLKEESEGEQFPGCRMRPWTAWSECTKLCGGGIQERYMTVKKRFKSSQFTSCKDKKEIRACNVHPC

Experiments:
γ-secretase = assay: Immunoblotting of C-terminal fragments (CTFs) in transfected HEK293 cells; format: cell-based
Protocol: HEK293, HeLa and COS7 cells were transfected at 50 to 80% confluency in 6-well plates using Fugene6 reagent (Roche). For Ga14-Tip60 transactivation assays, HEK293 cells were co-transfected with five plasmids: (1) pG5E1B-luc=0.15 μg; (2) pCMV-LacZ=0.10 μg; (3) pM-Tip60=0.5 μg; (4) pCMV-FE65=0.5 μg; and (5) 0.05-1.0 μg pCMV-APP, 0.025-0.5 μg pCMV-Sport6-APLP1, or 0.05-1.0 μg pcDNA3.1-APLP2 as indicated. For the Fe65 titration experiments, HEK293 cells were cotransfected with five plasmids: (1) pG5E1B-luc=0.15 μg; (2) pCMV-LacZ=0.10 μg; (3) pM-Tip60=0.5 μg; (4) 0.5 μg of APP, 0.25 μg of APLP1, or 0.5 μg of APLP2; and (5) 0-2.0 μg pCMV-Fe65. Cells were harvested 2 days after transfection in 0.25 ml/well of reporter lysis buffer (Promega), and their Luciferase and β-galctosidase activities were determined with the Promega luciferase assay kit using a chemiluminescence reader from Berthold, and with the O-nitrophenyl-D-galacto-pyranoside assay for β-galactosidase, respectively. The luciferase activity was standardized by the β-galactosidase activity to control for transfection efficiency and further normalized with the transactivation level with cells expressing no APPs or Fe65. Values shown are averages of transactivation assays performed in triplates. For immunoblotting analyses, HEK293 were transfected with 1 μg expression plasmids encoding APP, APLP1, APLP2, SynCam, or neurexin 1β, with or without 0.25 μg of BACE 1 expression vector. For APLP1 cleavage experiments, 1 μg of APLP1 or APP was cotransfected with BACE (0.25 μg and 0.5 μg) or ADAM 9 (0.5 μg and 1.0 μg) in HEK293, HeLa and COS cells. The cell extracts or media were harvested 24 hours after the transfection. Where indicated, γ-secretase inhibitor IX (DAPT; Calbiochem) was added (2 μM final concentration) 6 hrs before harvesting the cells.
SDS-PAGE and Immunoblotting experiments were performed using standard procedures well know to one of ordinary skill in the are with either regular SDS gels or tricine gels. Lanes were loaded with ˜20 μg of protein from whole cell extracts harvested in sample buffer, and analysed by immunoblotting after SDS-PAGE using antibody dilutions of 1:1,000-2,000 for primary and 1:10,000 HRP conjugated goat-anti-rabbit secondary antibodies (ICN). For immunoblotting analysis of secreted proteins, supernatants from transfected cells (30 μl with approximately 5 μg protein) were loaded per lane.
In the next set of experiments these antibodies were employed to probe for APP, APLP1, and APLP2 cleavage in cells that either expressed these proteins alone or in combination with BACE 1 (FIG. 4). As negative controls, two other neuronal cell-surface proteins, […] (Nrx1β) and SynCAM (36,37,39) were examined. For each of the five proteins studied, six conditions were investigated: HEK293 control cells (lane 1), transfected cells only expressing BACE 1 (lane 2), or cells transfected either with APP, APLP1, APLP2, neurexin 1β (Nrx1β), or SynCAM alone (lanes 3 and 5) or together with BACE 1 (lanes 4 and 6) were incubated in the absence (lanes 1-4) or presence of the γ-secretase inhibitor DAPT ([…]; lanes 5-6). Transfected proteins (indicated on the right) were examined by immunoblotting (20 μg cell protein/lane) using regular SDS-PAGE (top panel for each protein) to monitor the full-length proteins (FL), or by tricine gel electrophoresis to detect their CTFs (bottom panel for each protein). […]

[1] = system: Ga14-Tip60 dependent transcription mediated by APLP2 (γ-secretase cleavage); assay: Ga14-Tip60 transactivation assay, cells co-transfected with APLP2 and Fe65; format: cell-based; conditions: HEK293 cells; DAPT 2 and 10 μM; inhibition was incomplete; FIG. 2C
Protocol: (§1) HEK293, HeLa and COS7 cells were transfected at 50 to 80% confluency in 6-well plates using Fugene6 reagent (Roche). For Ga14-Tip60 transactivation assays, HEK293 cells were co-transfected with five plasmids: (1) pG5E1B-luc=0.15 μg; (2) pCMV-LacZ=0.10 μg; (3) pM-Tip60=0.5 μg; (4) pCMV-FE65=0.5 μg; and (5) 0.05-1.0 μg pCMV-APP, 0.025-0.5 μg pCMV-Sport6-APLP1, or 0.05-1.0 μg pcDNA3.1-APLP2 as indicated. For the Fe65 titration experiments, HEK293 cells were cotransfected with five plasmids: (1) pG5E1B-luc=0.15 μg; (2) pCMV-LacZ=0.10 μg; (3) pM-Tip60=0.5 μg; (4) 0.5 μg of APP, 0.25 μg of APLP1, or 0.5 μg of APLP2; and (5) 0-2.0 μg pCMV-Fe65. Cells were harvested 2 days after transfection in 0.25 ml/well of reporter lysis buffer (Promega), and their Luciferase and β-galctosidase activities were determined with the Promega luciferase assay kit using a chemiluminescence reader from Berthold, and with the O-nitrophenyl-D-galacto-pyranoside assay for β-galactosidase, respectively. […]
(§2) For all three proteins (APP, APLP1, and APLP2), a bell-shaped dose-response curve of transactivation that depended on APP or an APLP was observed (FIG. 2A). […] Again, a dose-dependent, highly specific transactivation of Ga14-dependent transcription was detected. […]

[2] = system: Ga14-Tip60 dependent transcription mediated by APLP1 (γ-secretase cleavage); assay: Ga14-Tip60 transactivation assay, cells co-transfected with APLP1 and Fe65; format: cell-based; conditions: HEK293 cells; DAPT 2 and 10 μM; inhibition was incomplete; FIG. 2C
Protocol: as §1, §2

[3] = system: Ga14-Tip60 dependent transcription mediated by APP (γ-secretase cleavage); assay: Ga14-Tip60 transactivation assay, cells co-transfected with APP and Fe65; format: cell-based; conditions: HEK293 cells; DAPT 2 and 10 μM; inhibition was incomplete; FIG. 2C
Protocol: as §1, §2

[4] = system: central APP domain (CAD) of APP, APLP1 and APLP2; assay: F-spondin binding to the central APP domain (CAD); conditions: extracellular ligand; reelin domain or reelin and spondin domains sufficient
[5] = biological target: β-secretase cleavage sites of APP (Homo sapiens, UniProt P05067); assay: Effect of F-spondin binding on β-secretase cleavage of APP
β-secretase cleavage sites of APP, sequence (P05067 18-770): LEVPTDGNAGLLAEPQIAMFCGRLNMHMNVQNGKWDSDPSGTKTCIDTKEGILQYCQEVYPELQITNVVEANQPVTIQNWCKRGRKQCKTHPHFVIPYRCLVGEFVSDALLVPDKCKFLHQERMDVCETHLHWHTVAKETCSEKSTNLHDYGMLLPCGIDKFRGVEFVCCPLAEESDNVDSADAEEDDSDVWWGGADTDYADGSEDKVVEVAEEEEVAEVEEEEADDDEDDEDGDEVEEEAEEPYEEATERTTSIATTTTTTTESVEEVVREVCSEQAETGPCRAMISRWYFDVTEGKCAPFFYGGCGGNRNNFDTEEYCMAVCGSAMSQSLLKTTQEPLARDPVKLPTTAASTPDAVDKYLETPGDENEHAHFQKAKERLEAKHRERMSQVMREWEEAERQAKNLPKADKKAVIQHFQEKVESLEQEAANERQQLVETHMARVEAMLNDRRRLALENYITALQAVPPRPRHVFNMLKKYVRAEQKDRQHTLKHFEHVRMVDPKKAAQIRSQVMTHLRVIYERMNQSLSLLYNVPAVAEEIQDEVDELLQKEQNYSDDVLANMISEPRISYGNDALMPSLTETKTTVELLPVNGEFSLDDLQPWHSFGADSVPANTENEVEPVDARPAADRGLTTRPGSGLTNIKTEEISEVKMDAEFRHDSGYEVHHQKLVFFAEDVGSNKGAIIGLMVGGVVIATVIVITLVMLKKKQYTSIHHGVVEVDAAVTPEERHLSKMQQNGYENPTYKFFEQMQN

Molecule	CTFs of APLP1 upon DAPT treatment (γ-secretase; HEK293 cells transfected with APLP1, with or without BACE 1, DAPT (2 mM [sic]), FIG. 4)	CTFs of APLP2 upon DAPT treatment (γ-secretase; HEK293 cells transfected with APLP2, with or without BACE 1, DAPT (2 mM [sic]), FIG. 4)	CTFs of APP upon DAPT treatment (γ-secretase; HEK293 cells transfected with APP, with or without BACE 1, DAPT added 6 hrs before harvesting, tricine gel immunoblot)	CTFs of neurexin 1β/APP hybrid upon DAPT treatment (γ-secretase; HEK293 cells transfected with Nrx1β/APP hybrid, with or without BACE 1, FIG. 6B)	CTFs of neurexin 1β upon DAPT treatment (γ-secretase; HEK293 cells transfected with neurexin 1β, DAPT (2 mM [sic]), said to be most likely an artifact, FIG. 4)	inhibition of transactivation mediated by APLP2 [1]	inhibition of transactivation mediated by APLP1 [2]	inhibition of transactivation mediated by APP [3]	binding to the central APP domain (CAD) of APP, APLP1 and APLP2 [4]	effect of binding on cleavage at the β-secretase cleavage sites [5]
C[C@H](NC(=O)Cc1cc(F)cc(F)c1)C(=O)N[C@H](C(=O)OC(C)(C)C)c1ccccc1 [DAPT]	very abundant	very abundant	very abundant; also recorded: massive accumulation of CTFs	massive accumulation of CTFs	CTFs were also observed	Significant inhibition	Significant inhibition	Significant inhibition		
B1									binds	inhibits the cleavage
